Laboratory results as given in US10370436B2, “Anti-pseudomonas Psl binding molecules and uses thereof” (priority 2011, dated 2019).

Tested on: P. aeruginosa PAO10 LPS
Assay: Endotoxemia (LPS challenge) model
Format: in vivo, C57Bl/6 mice
Details: 0.2 mg/kg i.p. 2 h prior to challenge
Description: In particular, C57Bl/6 mice (10 per group) were dosed i.p. with mAb or PMB-mAb conjugate 6 h prior to challenge with P. aeruginosa PAO10 LPS (Sigma) and D-galactosamine. PMB control was dosed i.p. 2 h prior to challenge at 0.2 mg/kg and typically provides 80-100% protection. Control mice dosed with unconjugated CAM-003 all died within 18 h.
TM conjugates were dosed at 45, 15 and 5 mg/kg.

Polymyxin B [PMB, reference compound] was tested, and the protection was 80-100%.
